What all share (test): cell-based
What all share (design): species or system Hana3A

In one assay the target is T1, hOR5R1 (Homo sapiens, UniProt Q8NH85).
T1 sequence (Q8NH85 1-324): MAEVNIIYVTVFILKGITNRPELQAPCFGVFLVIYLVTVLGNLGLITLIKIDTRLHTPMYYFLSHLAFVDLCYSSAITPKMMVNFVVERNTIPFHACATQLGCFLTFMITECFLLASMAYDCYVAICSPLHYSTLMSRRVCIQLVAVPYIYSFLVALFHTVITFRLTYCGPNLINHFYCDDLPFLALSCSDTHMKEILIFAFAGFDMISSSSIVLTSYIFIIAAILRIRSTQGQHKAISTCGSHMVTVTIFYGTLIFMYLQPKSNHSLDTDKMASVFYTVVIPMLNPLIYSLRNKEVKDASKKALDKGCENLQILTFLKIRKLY

The target in the next assay is T2, hOR11H12 (Homo sapiens, UniProt B2RN74).
T2 sequence (B2RN74 1-326): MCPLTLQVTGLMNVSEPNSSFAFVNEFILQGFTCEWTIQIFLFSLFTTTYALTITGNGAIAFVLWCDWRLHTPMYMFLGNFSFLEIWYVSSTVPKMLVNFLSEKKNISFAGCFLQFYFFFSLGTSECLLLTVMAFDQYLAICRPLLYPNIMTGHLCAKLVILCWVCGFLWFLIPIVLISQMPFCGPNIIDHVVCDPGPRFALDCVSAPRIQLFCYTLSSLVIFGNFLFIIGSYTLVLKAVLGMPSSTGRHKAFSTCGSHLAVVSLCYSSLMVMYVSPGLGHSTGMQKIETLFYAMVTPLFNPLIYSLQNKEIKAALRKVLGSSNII

Another assay deals with T3, hOR8B2 (Homo sapiens, UniProt Q96RD0).
T3 sequence (Q96RD0 1-313): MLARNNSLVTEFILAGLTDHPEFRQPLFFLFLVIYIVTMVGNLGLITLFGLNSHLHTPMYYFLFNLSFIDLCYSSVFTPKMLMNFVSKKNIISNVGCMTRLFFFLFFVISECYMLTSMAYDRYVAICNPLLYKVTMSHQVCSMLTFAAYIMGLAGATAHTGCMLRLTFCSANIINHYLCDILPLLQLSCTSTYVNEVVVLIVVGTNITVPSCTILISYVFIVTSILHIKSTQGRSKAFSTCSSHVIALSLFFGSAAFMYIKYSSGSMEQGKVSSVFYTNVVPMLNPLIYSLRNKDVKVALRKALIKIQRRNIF

For another assay, the target named is T4, hOR8K5 (Homo sapiens, UniProt Q8NH50).
T4 sequence (Q8NH50 1-307): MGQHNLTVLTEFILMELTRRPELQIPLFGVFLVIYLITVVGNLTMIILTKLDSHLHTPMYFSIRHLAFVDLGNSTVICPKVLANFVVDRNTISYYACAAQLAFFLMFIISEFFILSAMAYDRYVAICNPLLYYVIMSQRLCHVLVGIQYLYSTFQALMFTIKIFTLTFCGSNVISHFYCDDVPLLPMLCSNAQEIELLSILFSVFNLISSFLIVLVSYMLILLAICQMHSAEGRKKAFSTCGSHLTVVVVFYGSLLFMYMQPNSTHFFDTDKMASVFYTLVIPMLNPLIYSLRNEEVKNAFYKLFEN

Regarding `CC(=O)c1ccccc1` [acetophenone], the EC50 (commonly the concentration that produces a half-maximal response) on hOR5R1 is 3.4 µM; at hOR11H12, 4.7 µM; on hOR8B2, > 1000 µM; at hOR8K5, > 1000 µM.
As to `O=C1CCOc2ccccc21` [4-chromanone], the 50% effective concentration (EC50) is 218 µM at hOR5R1, > 1000 µM at hOR11H12, 15 µM on hOR8B2 and > 1000 µM on hOR8K5.
`C=C(C)[C@@H]1CC=C(C)C(=O)C1` [R-carvone]: the EC50 at hOR5R1 was 12 µM; at hOR11H12 it was 16.3 µM; on hOR8B2, > 1000 µM; on hOR8K5 it was 4.5 µM.
The like results for `O=c1ccc2ccccc2o1` [coumarin] were, in that order, 10.2 µM, 91.9 µM, > 1000 µM and > 1000 µM.

These data come from doi:10.1101/2020.01.06.895540v1 (biorxiv, 2020).
